The values that follow come from ChEMBL document CHEMBL4311936, “Synthesis and structure-activity relationship studies of IgG-binding peptides focused on the C-terminal histidine residue” (Medchemcomm, 2019).

pKd: −log10 of the molar value. Bridge positions count the residues as written; N and C are the ends. Peptide text beside a SMILES is read from it.

The species named for experiment [1] is Homo sapiens. Description: Binding affinity to IgG (unknown origin) assessed as association rate constant.
Experiment [2] in a line: Binding affinity to IgG (unknown origin) assessed as dissociation constant. More on the design: species or system Homo sapiens.
Experiment [3] in a line: Binding affinity to human IgG assessed as dissociation constant by SPR analysis.
Experiment [4] is filed under the species Homo sapiens. Description: Binding affinity to human IgG assessed as association rate constant by SPR analysis. On the technique in general: In SPR one partner is held on a chip, and binding of the other changes the refractive index at the surface.
The species entered for experiment [5] is Homo sapiens. Description: Binding affinity to human IgG assessed as dissociation rate constant by SPR analysis.

For the molecule `CC(=O)N[C@@H](CC(=O)O)C(=O)N[C@H]1CSSC[C@@H](C(=O)N[C@H](C(=O)N[C@@H](Cc2ccccc2)C(=O)N[C@@H](Cc2cnc[nH]2)C(N)=O)[C@@H](C)O)NC(=O)[C@H](Cc2c[nH]c3ccccc23)NC(=O)[C@H](C(C)C)NC(=O)[C@H](CC(C)C)NC(=O)[C@H](CCC(=O)O)NC(=O)CNC(=O)[C@H](CC(C)C)NC(=O)[C@H](Cc2cnc[nH]2)NC(=O)[C@H](Cc2ccc(O)cc2)NC(=O)[C@H](C)NC1=O` (Ac-DCAYHLGELVWCTFH-NH2; disulfide 2-12), the Ka in the experiment listed under Homo sapiens [1] was determined as 1.47e+06 M⁻¹ s⁻¹. Still for that read-out and setting: the figure for `CC(=O)N[C@@H](CC(=O)O)C(=O)N[C@H]1CSSC[C@@H](C(=O)N[C@H](C(=O)N[C@@H](Cc2ccccc2)C(=O)N[C@@H](Cc2cnc[nH]2)C(N)=O)[C@@H](C)O)NC(=O)[C@H](Cc2c[nH]c3ccccc23)NC(=O)[C@H](C(C)C)NC(=O)[C@H](CC(C)C)NC(=O)[C@H](CCC(=O)O)NC(=O)CNC(=O)[C@H](CCCCN)NC(=O)[C@H](Cc2cnc[nH]2)NC(=O)[C@H](Cc2ccc(O)cc2)NC(=O)[C@H](C)NC1=O` (Ac-DCAYHKGELVWCTFH-NH2; disulfide 2-12) is 741000 M⁻¹ s⁻¹. Usually pKd stands for the negative decadic logarithm of the Kd, by convention in mol/L. On to `CC(C)C[C@@H]1NC(=O)[C@H](Cc2cnc[nH]2)NC(=O)[C@H](Cc2c[nH]c3ccccc23)NC(=O)[C@H](C)NC(=O)[C@@H]2CSSC[C@H](NC(=O)[C@H](Cc3c[nH]c4ccccc34)NC(=O)[C@H](C(C)C)NC(=O)[C@H](CC(C)C)NC(=O)[C@H](CCC(=O)O)NC(=O)CNC1=O)C(=O)N[C@@H]([C@@H](C)O)C(=O)N[C@H](C(=O)O)CSSC[C@H](N)C(=O)N[C@@H](CC(=O)O)C(=O)N2`, for which the negative logarithm of the Kd (pKd) in experiment [2] was 8.61. The same measure, in the same setting: the figure for `CC(C)C[C@@H]1NC(=O)[C@H](Cc2cnc[nH]2)NC(=O)[C@H](Cc2c[nH]c3ccccc23)NC(=O)[C@H](C)NC(=O)[C@@H](NC(=O)[C@H](CC(=O)O)NC(=O)[C@@H]2CCCN2)CSSC[C@@H](C(=O)N[C@H](C(=O)N2CCC[C@@H]2C(N)=O)[C@@H](C)O)NC(=O)[C@H](Cc2c[nH]c3ccccc23)NC(=O)[C@H](C(C)C)NC(=O)[C@H](CC(C)C)NC(=O)[C@H](CCC(=O)O)NC(=O)CNC1=O` is 8.66.

Take `CC(=O)N[C@@H](CC(=O)O)C(=O)N[C@H]1CSSC[C@@H](C(=O)N[C@H](C(=O)N[C@@H](Cc2ccccc2)C(=O)N[C@@H](Cc2cnc[nH]2)C(=O)NCC(N)=O)[C@@H](C)O)NC(=O)[C@H](Cc2c[nH]c3ccccc23)NC(=O)[C@H](C(C)C)NC(=O)[C@H](CC(C)C)NC(=O)[C@H](CCC(=O)O)NC(=O)CNC(=O)[C@H](CCCCN)NC(=O)[C@H](Cc2cnc[nH]2)NC(=O)[C@H](Cc2ccc(O)cc2)NC(=O)[C@H](C)NC1=O` (Ac-DCAYHKGELVWCTFHG-NH2; disulfide 2-12): in experiment [3], the negative logarithm of the Kd (pKd) was 6.47. Further, in the experiment filed under Homo sapiens [4], the Ka was determined as 615000 M⁻¹ s⁻¹. Also, the Kdiss in the experiment listed under Homo sapiens [5] is 0.208 s⁻¹.
